From US10076540B1, “Medication enhancement using hydrogen” (Perricone Hydrogen Water Company, LLC, priority 2017, dated 2018)

Assay: Time until the effects of THC are felt after ingestion of a hydrogen-containing composition (uptake rate)
Format: in vivo
Conditions: human subject; drunk composition of liquid such as water, dissolved hydrogen and THC
Text: In some embodiments, the composition comprising hydrogen and an active pharmaceutical agent may have an uptake rate that is at least 2, at least 3, at least 5, at least 10, at least 20, at least 30, or at least 50 times the uptake rate of the active pharmaceutical agent alone by a subject. In certain embodiments, composition comprising hydrogen and an active pharmaceutical agent may have an uptake rate that is less than or equal to 100, less than or equal to 50, less than or equal to 30, less than or equal to 20, less than or equal to 10, less than or equal to 5, or less than or equal to 3 times the uptake rate of the active pharmaceutical agent alone by the subject. Combinations of the above-referenced ranges are also possible (e.g., at least 2 or less than or equal to 100 times). Other ranges are also possible. The uptake rate of a composition (or active pharmaceutical agent) may be determined by administering the composition (or active pharmaceutical agent) to a subject and determining the amount of time required to observe a pharmacological effect (e.g., a psychotropic effect, a reduction in disease and/or clinical symptom) of the active pharmaceutical agent on the subject.
A composition such as described herein is provided to a subject, such as a human subject. […]

CCCCCc1cc(O)c2c(c1)OC(C)(C)[C@@H]1CCC(C)=C[C@@H]21 [THC, tetrahydrocannabinol]
time after ingestion until the effects of the THC are felt by the subject: less than 5 minutes
